From PMC6748986, “Potent modulation of the CepR quorum sensing receptor and virulence in a Burkholderia cepacia complex member using non-native lactone ligands” (Scientific Reports, 2019)
Substitutions are numbered along the chain they refer to. Values joined by “and” are separate entries in the source; they are usually repeats but may differ in a detail not shown here. Equal entries are not always repeated. Where two headings read alike, the source gives them in different places.

Tests used:
[1] = molecular target: T1, CepR (Burkholderia cenocepacia, UniProt B4EMD0); experiment: CepR antagonism in E. coli β-galactosidase reporter (Ec-reporter), competition against C8-AHL; assay type: cell-based, B. cenocepacia
T1 sequence (B4EMD0 1-239): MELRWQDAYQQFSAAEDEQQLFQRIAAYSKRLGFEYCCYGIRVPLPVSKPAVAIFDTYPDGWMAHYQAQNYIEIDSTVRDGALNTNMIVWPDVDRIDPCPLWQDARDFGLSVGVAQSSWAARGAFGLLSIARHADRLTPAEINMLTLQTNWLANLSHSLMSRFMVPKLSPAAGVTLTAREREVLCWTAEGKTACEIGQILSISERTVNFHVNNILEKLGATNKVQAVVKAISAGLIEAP
Method in brief: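 CepR antagonism was measured in E. coli JLD271 (∆sdiA) carrying pJN105-cepR, which expresses B. cenocepacia CepR from an arabinose-inducible pBAD promoter, and pSC11-cepI, which fuses lacZ to the cepI promoter. Induced cells were grown 4 h with compound and 10 nM C8-AHL. β-Galactosidase activity was then read by CPRG cleavage at 37 °C after Z Buffer permeabilization.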

[2] = molecular target: T1, CepR; experiment: CepR agonism in E. coli β-galactosidase reporter (Ec-reporter) JLD271 [pJN105-cepR + pSC11-cepI]; assay type: cell-based, B. cenocepacia; details: for Maximal Activation (%): activity for 100 μM C8-AHL set to 100%, error ±10%
Method in brief: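 E. coli JLD271 (ΔsdiA) carrying arabinose-inducible CepR (27 mM L-arabinose) and cepI-lacZ fusion, grown 4 h with compound; β-galactosidase measured by CPRG cleavage at 37 °C (~30 min), normalized to OD600. Agonism compared with C8-AHL at 100 μM; screen at 100 μM or solubility limit, then dose-response; ≥3 trials.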

[3] = molecular target: T2, CepR (Burkholderia multivorans, UniProt Q93PF7); experiment: CepR agonism in B. multivorans cepI::lacZ reporter (Bm-reporter); assay type: cell-based; details: for EC50: read-out: EC50; for Maximal Activation (%): activity for 100 μM C8-AHL set to 100%, error ±10%
T2 sequence (Q93PF7 1-239): T1 sequence (B4EMD0 1-239) with W5R, A51S, Q69H, N84S, R95Q, D97A
From the text: (§1) We next sought to assess if the CepR modulators identified in the Ec-reporter maintained their activities in a member of the Bcc. For these studies, we generated a B. multivorans cepI::lacZ reporter organism (Bm-reporter) using standard allelic exchange methods (see Methods). Along with B. cenocepacia, B. multivorans is one of the most commonly isolated Bcc members[6],[44]. We note that small molecules must contend with a different cellular environment in the native organism relative to E. coli[48]; however, as both CepR and the cepI promoter are highly conserved among Bcc species (Fig. S3), we reasoned that the majority of compounds identified in the Ec-reporter (containing B. cenocepacia versions of the cepI promoter and the cepR gene) would maintain their relative activity profiles in CepR in B. multivorans. […] Similar to the Ec-reporter, CepR binding to the cepI promoter then induces β-galactosidase production, allowing for the quantitation of CepR activity. Using the Bm-reporter organism, we observed robust activity for CepR in response to C8-AHL (EC50 = 0.7 nM, Table 3).
(§2) The B. multivorans cepI::lacZ strain was used to obtain dose-response data for CepR in response to synthetic AHLs. Overnight cultures of B. multivorans cepI::lacZ were grown in LB medium at 37 °C with shaking (225 rpm). Aliquots (200 μL) of a 1:10 dilution of this overnight culture were plated into 96-well plates containing varying concentrations of compound, and then grown for 4 h at 37 °C with shaking (225 rpm). β-galactosidase production was measured as described above for E. coli, with the following changes: permeabilized cells were incubated at 25 °C with substrate CPRG for ~10 min until positive control wells developed a deep red color. For agonism assays, synthetic compound was screened alongside and compared to the native ligand, C8-AHL (100 μM). For antagonism assays, the concentration of native ligand utilized was 5 nM (approximately equal to twice its EC50 value).

[4] = molecular target: T2, CepR; experiment: CepR antagonism in B. multivorans cepI::lacZ reporter (Bm-reporter), competition against C8-AHL; assay type: cell-based; details: for Inh% (100-Act%): Table S5, Bm-reporter, screening conc. 100 μM
From the text: as §1, §2

[5] = Table S3, Ec-reporter, screening conc. 100 μM, against 10 nM C8-AHL
[6] = Table S2, Ec-reporter, screening conc. 100 μM
[7] = Bm-reporter, agonism dose-response
[8] = Table S4, Bm-reporter, screening conc. 100 μM
[9] = Ec-reporter, against 10 nM C8-AHL
[10] = Bm-reporter, against 5 nM C8-AHL
[11] = Ec-reporter, agonism dose-response

O=C(CCCOc1ccc(Cl)cc1)NC1CCOC1=O (centres unmarked) [CL, reference compound]
Inh% (100-Act%) [1, 5]: -20%
EC50 ([2]; Table S2, Ec-reporter): 12 nM
Act% [2, 6]: 110%
EC50 [3, 7]: 940 nM
Maximal Activation (%) ([3]; Bm-reporter): 80%
Act% [3, 8]: 80%

O=C(Cc1ccc(Br)cc1)N[C@H]1CCOC1=O [Control 7, reference compound]
Inh% (100-Act%) [1, 5]: 89%
Act% [2, 6]: 0.2%
Inh% (100-Act%) [4]: 85%

O=C(Cc1ccccc1Cl)N[C@H]1CCOC1=O [Compound C7]
IC50 [1, 9]: 5900 nM
Maximal Inhibition (%) [1, 9]: 89%
Act% [2, 6]: 0.3%
Inh% (100-Act%) [4]: 95%

O=C(Cc1cccc2ccccc12)N[C@H]1CCOC1=O [Compound E13]
IC50 ([1]; Table S3, Ec-reporter): 4900 nM
Inh% (100-Act%) [1, 5]: 50%
Act% [2, 6]: 2.5%
Maximal Inhibition (%) [4, 10]: 13%

CC(C)Oc1ccc(C(=O)N[C@H]2CCOC2=O)cc1 [Compound R3]
Inh% (100-Act%) [1, 5]: -10%
EC50 ([2]; Table S2, Ec-reporter): 94 nM
Act% [2, 6]: 92%
Act% [3, 8]: 40%

Cc1ccc(CCC(=O)N[C@H]2CCOC2=O)cc1 [Compound E26]
Inh% (100-Act%) [1, 5]: -10%
EC50 [2, 11]: 5.9 nM
Maximal Activation (%) ([2]; Ec-reporter): 96%
Act% [2, 6]: 96%
Maximal Activation (%) ([3]; Bm-reporter): 96%
EC50 ([3]; Table S4, Bm-reporter): 0.77 nM
Act% [3, 8]: 96%

O=C(CCc1ccc2c(c1)OCO2)N[C@H]1CCOC1=O [Compound E39]
Inh% (100-Act%) [1, 5]: -40%
EC50 [2, 11]: 1.4 nM
Maximal Activation (%) ([2]; Ec-reporter): 100%
Act% [2, 6]: 103%
EC50 ([3]; Table S4, Bm-reporter): 9.1 nM
Act% [3, 8]: 84%

O=C(CCc1cccc(C(F)(F)F)c1)N[C@H]1CCOC1=O [Compound E36]
Inh% (100-Act%) [1, 5]: -10%
EC50 [2, 11]: 26 nM
Maximal Activation (%) ([2]; Ec-reporter): 92%
Act% [2, 6]: 92%
EC50 [3, 7]: ≥ 3900 nM
Maximal Activation (%) ([3]; Bm-reporter): 100%
Act% [3, 8]: 103%

CCCCCCCCCC(=O)CC(=O)N[C@H]1CCOC1=O [3’O-C12-AHL, reference compound]
Inh% (100-Act%) [1, 5]: -40%
Act% [2, 6]: 98%
Act% [3, 8]: 80%

O=C(CCc1ccc(Cl)cc1)N[C@H]1CCOC1=O [Compound E30]
Inh% (100-Act%) [1, 5]: -10%
EC50 [2, 11]: 4.4 nM
Maximal Activation (%) ([2]; Ec-reporter): 85%
Act% [2, 6]: 85%
EC50 [3, 7]: 0.75 nM
Maximal Activation (%) ([3]; Bm-reporter): 84%
Act% [3, 8]: 84%

CCCOc1ccc(C(=O)N[C@H]2CCOC2=O)cc1 [Compound R2]
Inh% (100-Act%) [1, 5]: -10%
EC50 ([2]; Table S2, Ec-reporter): 38 nM
Act% [2, 6]: 98%
Act% [3, 8]: 92%

O=C(CCc1cccc(Br)c1)N[C@H]1CCOC1=O [Compound E31]
Inh% (100-Act%) [1, 5]: -20%
EC50 [2, 11]: 4.4 nM
Maximal Activation (%) ([2]; Ec-reporter): 89%
Act% [2, 6]: 89%
EC50 [3, 7]: ≥ 3400 nM
Maximal Activation (%) ([3]; Bm-reporter): 78%
Act% [3, 8]: 78%

O=C(CCc1cccc(I)c1)N[C@H]1CCOC1=O [Compound E33]
Inh% (100-Act%) [1, 5]: -20%
EC50 [2, 11]: 0.95 nM
EC50 (nM) [2, 11]: sub-nanomolar
Maximal Activation (%) ([2]; Ec-reporter): 92%
Act% [2, 6]: 92%
EC50 [3, 7]: 0.15 nM
Maximal Activation (%) ([3]; Bm-reporter): 94%
Act% [3, 8]: 94%

CCCCOc1ccc(C(=O)N[C@H]2CCOC2=O)cc1 [Compound R4]
Inh% (100-Act%) ([1]; Table S3, Ec-reporter, screening conc. 25 μM): -30%
EC50 ([2]; Table S2, Ec-reporter): 86 nM
Act% ([2]; Table S2, Ec-reporter, screening conc. 25 μM): 84%
Act% ([3]; Table S4, Bm-reporter, screening conc. 25 μM): 58%

O=C(CCc1ccc(F)cc1)N[C@H]1CCOC1=O [Compound E29]
Inh% (100-Act%) [1, 5]: -10%
EC50 [2, 11]: 2.3 nM
Maximal Activation (%) ([2]; Ec-reporter): 92%
Act% [2, 6]: 92%
Act% [3, 8]: 94%

CSc1ccc(CCC(=O)N[C@H]2CCOC2=O)cc1 [Compound E34]
Inh% (100-Act%) [1, 5]: -20%
Fold more potent than C8-AHL ([2]; Ec-reporter, EC50 comparison): ~100 fold
EC50 [2, 11]: 0.07 nM and 0.071 nM
Maximal Activation (%) ([2]; Ec-reporter): 104% and 100%
Act% [2, 6]: 104%
EC50 [3, 7]: 0.94 nM
Maximal Activation (%) ([3]; Bm-reporter): 110%
Act% [3, 8]: 110%

CCCCCC(=O)CC(=O)N[C@H]1CCOC1=O [3’O-C8-AHL, reference compound]
IC50 [1, 9]: 16000 nM
Maximal Inhibition (%) [1, 9]: 71%
Inh% (100-Act%) [1, 5]: 3.0%
EC50 [2, 11]: 1200 nM
Maximal Activation (%) ([2]; Ec-reporter): 86%
Act% [2, 6]: 86%
EC50 [3, 7]: ≥ 3500 nM
Maximal Activation (%) ([3]; Bm-reporter): 72%
Act% [3, 8]: 72%

O=C(CCC1CCCCC1)N[C@H]1CCOC1=O [Compound B11]
Inh% (100-Act%) [1, 5]: -20%
EC50 [2, 11]: 130 nM
Maximal Activation (%) ([2]; Ec-reporter): 87%
Act% [2, 6]: 87%
Act% [3, 8]: 51%

COc1ccc(CCC(=O)N[C@H]2CCOC2=O)cc1 [Compound E28]
Inh% (100-Act%) [1, 5]: -30%
EC50 [2, 11]: 3.8 nM
Maximal Activation (%) ([2]; Ec-reporter): 92%
Act% [2, 6]: 92%
EC50 ([3]; Table S4, Bm-reporter): 52 nM
Act% [3, 8]: 90%

CCCC(=O)CC(=O)N[C@H]1CCOC1=O [3’O-C6-AHL, reference compound]
Maximal Inhibition (%) [4, 10]: 85%
IC50 ([4]; Bm-reporter, against 5 nM C8-AHL, read-out: IC50): 800 nM

O=C(CCc1ccc(Br)cc1)N[C@H]1CCOC1=O [Compound B7]
Inh% (100-Act%) [1, 5]: -50%
EC50 [2, 11]: 0.29 nM
EC50 (nM) [2, 11]: sub-nanomolar
Maximal Activation (%) ([2]; Ec-reporter): 97%
Act% [2, 6]: 97%
EC50 [3, 7]: 0.24 nM
Maximal Activation (%) ([3]; Bm-reporter): 82%
Act% [3, 8]: 82%

O=C(CCCC1CCCCC1)N[C@H]1CCOC1=O [Compound S6]
Inh% (100-Act%) [1, 5]: -10%
Act% [2, 6]: 90%
